Measured values as given in patent publication US10792301B2, “Therapeutic polysaccharide midi-GAGR and related materials and methods” (priority 2015, dated 2020).

Legend:
Assay type in all cases: cell-based
[1] = system: phosphorylated CREB in differentiated PC12 cells; assay: Nuclear p-CREB immunostaining in PC12 cells; conditions: 1 μM, 24 h
Description: (§1) Differentiated PC12 cells and mouse embryonic cortical neurons (E17, DIV14) were treated with mock, dextran, alginate, HA-GAGR or midi-GAGR (1 μM) for 24 h and fixed in 3.7% paraformaldehyde. The fixed cells and neurons were immunostained with antibodies against α-tubulin and phosopho-CREB (p-CREB) along with DAPI (nucleus).

[2] = system: primary mouse cortical neurons (E17, DIV4); assay: Neurite outgrowth in primary mouse cortical neurons; conditions: 2 days; 1 μM midi-GAGR, dextran, alginate; 0.1 μM LA-GAGR; 0.01 μM HA-GAGR
Description: To analyze the effect of polysaccharides on neurite outgrowth, primary mouse cortical neurons were treated with vehicle (H2O) or 1 μM of dextran, alginate, or midi-GAGR, 0.01 μM of HA-GAGR, or 0.1 μM of LA-GAGR for 2 days prior to immunocytochemistry using anti-α-tubulin antibody and secondary Alexa488nm antibody. An etched grid coverslip containing 200 numbered boxes was used to select neurons objectively for image acquisition and analysis. A total of 24 boxes were randomly selected per treatment group. All the neurons having total neurite length longer than 4 times of the diameter of neuron cell body were chosen for image analysis. The total length of the neurites of each neuron was measured using Metamorph and used to calculate average total neurite length. To examine the effect of polysaccharides on the phosphorylation (activation) of nuclear CREB, neurons were stained with anti-pCREB antibody (Abcam & Santa Cruz biotechnologies, 2nd antibody with Alexa568nm), anti-α-tubulin antibody (Sigma, 2nd antibody with Alexa488nm), and DAPI (Sigma) after two-day incubation with vehicle (H2O) or 1 μM of dextran, alginate, or midi-GAGR, 0.01 μM of HA-GAGR, or 0.1 μM of LA-GAGR. […] The images of neurons on coverslips were taken by confocal microscopy at the same gain (850), offset (˜0.01) and exposure time (2 sec). The intensity of the staining of nuclear pCREB was measured using Metamorph and used to calculate average intensity. In addition, the phosphorylation of CREB in the cytosols of mouse cortical neurons treated with polysaccharides were detected by immunoblotting. Primary mouse neurons were dissected from 16 mouse embryos (E17) and plated in the wells of 6-well plates (1×10^6 cells/well), differentiated for 6 days, and treated with polysaccharides for 48 h. […] The protein bands on blots recognized by anti-pCREB (Santa Cruz Biotechnologies) and anti-CREB antibodies were detected on Amersham Hyperfilm™ ECL films (GE Healthcare Life Science) using SuperSignal® West Pico Chemiluminescent Substrate (Thermo Scientific).

[3] = system: Rat embryonic cortical neurons; assay: Neuritic atrophy caused by 4-HNE, Scholl ring analysis; conditions: pre-treatment 2 days (1 μM; ascorbate 100 μM), then 25 μM 4-HNE 1 day
Description: Rat embryonic cortical neurons were treated with mock (FIG. 11C), 1 μM HA-GAGR (high acyl gellan gum), 1 μM dextran, 100 μM ascorbate or 1 μM midi-GAGR (FIG. 13A) for 2 days and then with 25 μM 4-hydroxynonenal (4-HNE), a lipid peroxide, for 1 day. After fixation, neurons were immunostained with anti-synaptophysin antibody (green) and rhodamine-phalloidin (actin: red). Scholl ring analysis was performed.

[4] = system: phosphorylated CREB in mouse embryonic cortical neurons; assay: Nuclear p-CREB immunostaining in cortical neurons (Example 2); conditions: 1 μM, 24 h
Description: as §1

[5] = system: Differentiated dopaminergic PC12 cells; assay: LIVE/DEAD viability of differentiated PC12 cells exposed to 6-OHDA; conditions: 1 μM for 6 h, then 30 μM 6-OHDA for 24 h
Description: Differentiated dopaminergic PC12 cells and primary mouse embryonic cortical neurons (E17, DIV14) were treated with mock (H2O) or 1 μM of dextran, alginate, HA-GAGR or midi-GAGR for 6 h and insulated by oxidative stressors (30 μM 6-OHDA [PC12] and 10 μM amyloid β peptide [cortical neurons]) for 24 h.

In the case of dextran, the “increase of the levels of nuclear p-CREB” value [1] is reported as “not significantly increased”, the “fold change in average total neurite length compared to vehicle” value [2] is reported as “did not enhance neuritogenesis” and the “neurites in the presence of 4-HNE (neuritic atrophy)” value [3] is reported as “lost neuritis”. For the same substance, the “increase of the levels of nuclear p-CREB” value [4] was “not significantly increased” and the 6-OHDA-induced cell death [5] was “did not”.
